Results as given in patent US12577213B2 (NINGBO COMBIREG PHARMACEUTICAL TECHNOLOGY CO., LTD., priority 2020, dated 2026).
Like-named read-outs stand apart in the source and are kept apart here.

Tests used:
[1] = system: A549 (non-small cell lung cancer); test: NCI method SRB growth inhibition, A549; type: cell-based; conditions: Homo sapiens; A549, treated 48 hours, SRB stain
In short: (§1)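 NCI 60-line protocol, 48 h compound exposure; SRB stain, OD 515 nm. Growth % = (Ti−Tz)/(C−Tz)×100 when Ti≥Tz, else (Ti−Tz)/Tz×100. GI50 at 50, TGI at Ti=Tz, LC50 at −50.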

786-0 (renal cancer) = test: NCI method SRB growth inhibition, 786-0; type: cell-based; conditions: Homo sapiens; 786-0, treated 48 hours, SRB stain
In short: as §1

LOX-IMVI (melanoma) = test: NCI method SRB growth inhibition, LOX-IMVI; type: cell-based; conditions: Homo sapiens, treated 48 hours, SRB stain
In short: as §1

[2] = system: SF295 (central nervous system tumor); test: NCI method SRB growth inhibition, SF295; type: cell-based; conditions: Homo sapiens, SF-295; SF295, treated 48 hours, SRB stain
In short: as §1

OVCAR-3 (ovarian cancer) = test: NCI method SRB growth inhibition, OVCAR-3; type: cell-based; conditions: Homo sapiens; OVCAR-3, treated 48 hours, SRB stain
In short: as §1

HS 578T (breast cancer) = test: NCI method SRB growth inhibition, HS 578T; type: cell-based; conditions: Homo sapiens, HS578T, treated 48 hours, SRB stain
In short: as §1

[3] = Liver microsomes stability; type: in vitro ADME, human; conditions: for half-life at 1 μM: human, human liver microsomes
In short: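 Compound at 1 μM final incubated with 1 mg/mL human liver microsomes and 1 mM NADPH (no-NADPH control), sampled at 0, 5, 15, 30, 60 min. Remaining parent quantified by LC-MS/MS; T1/2 = 0.693/k.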

[4] = Metabolic stability in vivo (plasma half-life after IV); conditions: mouse, plasma, iv; intravenously at 1 mg/kg, male BALB/c nude mice; read-out: T½ of (IV in nude mice) (converted)
Protocol: The intravenous injection group of the embodiment compound was prepared with the mixed solvent of DMA:PEG400:30% SBECD=5:25:70 to form a 0.2 mg/mL of solution, and administered intravenously at 1 mg/kg of weight; and the oral preparation group was prepared with 0.5% MC to form a 1 mg/mL of solution, and administered by oral gavage at 10 mg/kg weight.
• Male BALB/c nude mice, 4-5 weeks old, purchased from Shanghai SLAC. 3. Experiment Method: 3.1 Instruments: • Liquid chromatography system: Shimadzu liquid chromatography system Shimadzu LC-30AD • MS/MS system: Applied Biosystems API5500 • Data collection: Analyst Software 1.5.2 3.2 Chromatographic Conditions Chromatographic Column • Analytical column: Kinetex 2.6u C18 100 A column (3.0 mm×30 mm) • Mobile phase: A: 10 mM NH4OAc (0.1% FA); B: Acetonitrile with 0.1% […] • Flow rate: 1.0 mL/min
Ion source was an electron spray ionization (ESI source) with negative ion detection; spray voltage source was 5500 V; ion source gas 1 (N2) was 50 psi; ion source gas 2 (N2) was 50 psi; air curtain gas (N2) was 30 psi. Scanning mode was multiple reaction monitoring (MRM); scanning time was 80 ms; collision gas pressure was 10 psi;
Grouping experiment, with three animals in each group, starting from now on, administration was started according to the weight of the animals. Blood was collected according to 5 min, 15 min, 30 min, 1 h, 2 h, 4 h, 8 h and 24 h after administration.
To 25.0 μL of plasma, 25.0 μL of internal standard solution (Tolbutamide (250 ng/mL) in acetonitrile), 25.0 μL of acetonitrile and 100 μL of acetonitrile were added, and the mixture was vortexed for 1 min, and centrifuged for 5 min (14000 rpm). 120 μL of the resulting supernatant was added with 80.0 μL of water (containing 1% formic acid) and mixed well, then analyzed by LC/MS/MS.

[5] = 1 μM compound, 1 mg/mL human liver microsomes, 1 mM NADPH
[6] = 1 μM compound, 1 mg/mL human liver microsomes, 1 mM NADPH, read-out: T½ of HLM
[7] = as repeated in Table 4, read-out: T½ of HLM (in vitro)

Structure (SMILES)	GI50 [1]	GI50 (786-0 (renal cancer))	GI50 (LOX-IMVI (melanoma))	GI50 [2]	GI50 (OVCAR-3 (ovarian cancer))	GI50 (HS 578T (breast cancer))	microsomal CLint at 1 μM [3, 5]	half-life at 1 μM [3, 6]	half-life at 1 μM [3, 7]	half-life [4]
[2H]C([2H])([2H])Oc1cc(C(=O)Nc2cc3c(cc2Oc2cc(C)cc(C)c2)C(=O)N(C)[C@@H](CC(=O)N(C)C)C(=O)N3)c(Br)c(OC([2H])([2H])[2H])c1OC([2H])([2H])[2H] [Compound 16, (S)-2-bromo-N-[3-[2-(dimethylamino)-2-oxoethyl]-7-(3,5-dimethylphenoxy)-4-methyl-2,5-dioxo-2,3,4,5-tetrahydro-1H-benzo[e][1,4]diazepin-8-yl]-3,4,5-tris(trideuteromethoxy)benzamide]	< 5 nM	11.2 nM	< 5 nM	7.6 nM	< 5 nM	< 5 nM	11.6 µL/min/mg	0.948 h	0.997 h	0.585 h
[2H]C([2H])([2H])Oc1cc(C(=O)Nc2cc3c(cc2Oc2cc(C)cc(C)c2)C(=O)N[C@@H](CC(=O)N(C([2H])([2H])C([2H])([2H])[2H])C([2H])([2H])C([2H])([2H])[2H])C(=O)N3)c(Br)c(OC([2H])([2H])[2H])c1OC([2H])([2H])[2H] [Compound 5, (S)-2-bromo-N-[3-[2-[bis(pentadeuteroethyl)amino]-2-oxoethyl]-7-(3,5-dimethylphenoxy)-2,5-dioxo-2,3,4,5-tetrahydro-1H-benzo[e][1,4]diazepin-8-yl]-3,4,5-tris(trideuteromethoxy)benzamide]	< 5 nM	26.1 nM	< 5 nM	17.4 nM	< 5 nM	< 5 nM	3.2 µL/min/mg	3.62 h	3.62 h	1.52 h
[2H]C([2H])([2H])Oc1cc(C(=O)Nc2cc3c(cc2Oc2cc(C)cc(C)c2)C(=O)N[C@@H](CC(=O)N(C)C)C(=O)N3)c(Br)c(OC([2H])([2H])[2H])c1OC([2H])([2H])[2H] [Compound 20, (S)-2-bromo-N-[3-[2-(dimethylamino)-2-oxoethyl]-7-(3,5-dimethylphenoxy)-2,5-dioxo-2,3,4,5-tetrahydro-1H-benzo[e][1,4]diazepin-8-yl]-3,4,5-tris(trideuteromethoxy)benzamide]	< 5 nM	26.5 nM	< 5 nM	19.9 nM	< 5 nM	< 5 nM	2.1 µL/min/mg	5.5 h	5.5 h	0.8 h
